Source: patent publication US9676714B2, “Sulfonylindole derivatives and method for preparing the same” (Daewoong Pharmaceutical Co., Ltd., priority 2013, dated 2017)
Counter-ions that a name gives are not always drawn.

Biological target: T1, proton pump (H+/K+-ATPase) (Sus scrofa, UniProt P19156)
T1 construct: Gastric vesicles were prepared from hog stomach via centrifugal separation; from tissue; host or cells: hog stomach (gastric vesicles, method of Rabon et al. 1988)
Assay: Measurement of inhibitory effects on proton pump (H+/K+-ATPase) activities
Format: biochemical
Settings: hog gastric vesicles, K+-specific H+/K+-ATPase activity, Tris-HCl buffer pH 7.4, 37° C. for 40 minutes, malachite green Pi readout
In short: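 Hog gastric vesicles in 60 mmol/l Tris-HCl pH 7.4 with 0.5% DMSO were treated with compounds at room temperature; reaction was started with 10 μl of 10 mmol/l ATP stock. Released Pi was read at 570 nm, K+-specific activity taken as the ±K+ difference. IC50 from 4-parameter logistic fit.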

T1 sequence (P19156 whole entry): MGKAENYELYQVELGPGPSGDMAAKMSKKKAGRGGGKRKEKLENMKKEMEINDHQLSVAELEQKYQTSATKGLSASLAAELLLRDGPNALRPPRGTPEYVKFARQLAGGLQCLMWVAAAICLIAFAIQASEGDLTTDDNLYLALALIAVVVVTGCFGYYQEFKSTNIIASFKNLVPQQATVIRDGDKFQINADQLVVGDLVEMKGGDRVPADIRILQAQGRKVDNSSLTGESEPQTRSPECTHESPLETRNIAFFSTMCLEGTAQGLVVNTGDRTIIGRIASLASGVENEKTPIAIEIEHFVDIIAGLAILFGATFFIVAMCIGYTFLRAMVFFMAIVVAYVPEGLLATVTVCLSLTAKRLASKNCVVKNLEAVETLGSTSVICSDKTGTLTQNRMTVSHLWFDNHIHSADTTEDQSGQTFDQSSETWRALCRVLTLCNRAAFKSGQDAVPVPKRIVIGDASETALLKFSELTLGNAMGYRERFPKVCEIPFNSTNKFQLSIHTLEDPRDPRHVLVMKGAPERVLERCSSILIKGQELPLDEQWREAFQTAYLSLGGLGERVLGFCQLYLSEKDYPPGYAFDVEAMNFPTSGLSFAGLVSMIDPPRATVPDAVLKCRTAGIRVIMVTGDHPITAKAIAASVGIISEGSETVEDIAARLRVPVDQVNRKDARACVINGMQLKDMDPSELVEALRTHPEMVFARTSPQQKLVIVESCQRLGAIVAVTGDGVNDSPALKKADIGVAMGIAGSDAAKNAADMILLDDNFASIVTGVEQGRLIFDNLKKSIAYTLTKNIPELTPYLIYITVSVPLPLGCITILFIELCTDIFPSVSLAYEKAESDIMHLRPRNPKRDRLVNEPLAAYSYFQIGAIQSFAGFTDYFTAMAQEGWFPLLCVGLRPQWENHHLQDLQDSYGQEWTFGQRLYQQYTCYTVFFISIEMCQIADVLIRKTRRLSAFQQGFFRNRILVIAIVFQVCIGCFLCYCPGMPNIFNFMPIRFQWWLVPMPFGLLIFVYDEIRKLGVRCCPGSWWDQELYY
T1 sequence (P18434 whole entry partner): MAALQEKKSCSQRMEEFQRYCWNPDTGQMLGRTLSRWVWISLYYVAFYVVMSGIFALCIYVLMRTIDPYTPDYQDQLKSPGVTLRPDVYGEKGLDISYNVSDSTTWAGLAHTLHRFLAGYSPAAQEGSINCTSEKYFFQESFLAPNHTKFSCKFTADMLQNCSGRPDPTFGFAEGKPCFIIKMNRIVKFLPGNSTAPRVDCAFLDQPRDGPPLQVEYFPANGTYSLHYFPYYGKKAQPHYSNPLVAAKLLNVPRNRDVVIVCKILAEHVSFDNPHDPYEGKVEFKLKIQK

IC50 | SMILES
0.38 µM | CNCc1cn(S(=O)(=O)c2cccnc2)c2cc(N3CCCc4cc(C)ccc43)ccc12 [Example 260, N-methyl-1-(6-(6-methyl-3,4-dihydroquinolin-1(2H)-yl)-1-(pyridin-3-ylsulfonyl)-1H-indol-3-yl)methanamine hydrochloride]
9.24 µM | CNCc1cn(S(=O)(=O)c2cccc(OC(F)F)c2)c2cc(-c3cccnc3C(F)(F)F)ccc12 [Example 261, 1-(1-((3-(difluoromethoxy)phenyl)sulfonyl)-6-(2-(trifluoromethyl)pyridin-3-yl)-1H-indol-3-yl)-N-methylmethanamine hydrochloride]
8.44 µM | CNCc1cn(S(=O)(=O)c2cccc(OC(F)F)c2)c2cc(-c3ccnc(F)c3)ccc12 [Example 262, 1-(1-((3-(difluoromethoxy)phenyl)sulfonyl)-6-(2-fluoropyridin-4-yl)-1H-indol-3-yl)-N-methylmethanamine hydrochloride]
60 µM | CNCc1cn(S(=O)(=O)c2cccc(OC(F)F)c2)c2cc(-c3cnc(F)c(C)c3)ccc12 [Example 263, 1-(1-((3-(difluoromethoxy)phenyl)sulfonyl)-6-(6-fluoro-5-methylpyridin-3-yl)-1H-indol-3-yl)-N-methylmethanamine hydrochloride]
20 µM | CNCc1cn(S(=O)(=O)c2cccc(OC(F)F)c2)c2cc(-c3cncnc3)ccc12 [Example 264, 1-(1-((3-(difluoromethoxy)phenyl)sulfonyl)-6-(pyrimidin-5-yl)-1H-indol-3-yl)-N-methylmethanamine hydrochloride]
40 µM | CNCc1cn(S(=O)(=O)c2ccc(OC(F)F)cc2)c2cc(-c3cncnc3)ccc12 [Example 265, 1-(1-((4-(difluoromethoxy)phenyl)sulfonyl)-6-(pyrimidin-5-yl)-1H-indol-3-yl)-N-methylmethanamine hydrochloride]
45 µM | CNCc1cn(S(=O)(=O)c2cccc(OC(F)F)c2)c2cc(-c3cnc(OC)nc3)ccc12 [Example 266, 1-(1-((3-(difluoromethoxy)phenyl)sulfonyl)-6-(2-methoxypyrimidin-5-yl)-1H-indol-3-yl)-N-methylmethanamine hydrochloride]
0.76 µM | CNCc1cn(S(=O)(=O)c2cccnc2)c2cc(Cc3ccccc3)ccc12 [Example 268, 1-(6-benzyl-(pyridin-3-ylsulfonyl)-1H-indol-3-yl)-N-methylmethanamine hydrochloride]
0.77 µM | CNCc1cn(S(=O)(=O)c2cccnc2)c2cc(Cc3ccccc3F)ccc12 [Example 269, 1-(6-(2-fluorobenzyl)-1-(pyridin-3-ylsulfonyl)-1H-indol-3-yl)-N-methylmethanamine hydrochloride]
3.95 µM | CNCc1cn(S(=O)(=O)c2cccnc2)c2cc(Cc3ccc(OC(F)(F)F)cc3)ccc12 [Example 271, N-methyl-1-(1-(pyridin-3-ylsulfonyl)-6-(4-(trifluoromethoxy)benzyl)-1H-indol-3-yl)methanamine hydrochloride]
1.17 µM | CNCc1cn(S(=O)(=O)c2cccnc2)c2cc(Cc3ccc(Cl)cc3F)ccc12 [Example 274, 1-(6-(4-chloro-2-fluorobenzyl)-1-(pyridin-3-ylsulfonyl)-1H-indol-3-yl)-N-methylmethanamine hydrochloride]
1.76 µM | CNCc1cn(S(=O)(=O)c2cccnc2)c2cc(Cc3ccc(Cl)cc3C(F)(F)F)ccc12 [Example 275, 1-(6-(4-chloro-2-(trifluoromethyl)benzyl)-1-(pyridin-3-ylsulfonyl)-1H-indol-3-yl)-N-methylmethanamine hydrochloride]
0.67 µM | CNCc1cn(S(=O)(=O)c2cccnc2)c2cc(Cc3ccc(C(F)(F)F)cc3Cl)ccc12 [Example 276, 1-(6-(2-chloro-4-(trifluoromethyl)benzyl)-1-(pyridin-3-ylsulfonyl)-1H-indol-3-yl)-N-methylmethanamine hydrochloride]
0.76 µM | CNCc1cn(S(=O)(=O)c2cccnc2)c2cc(Cc3ccc(OC)cc3F)ccc12 [Example 277, 1-(6-(2-fluoro-4-methoxybenzyl)-1-(pyridin-3-ylsulfonyl)-1H-indol-3-yl)-N-methylmethanamine hydrochloride]

Second part, the molecule before the results:

SMILES | IC50
CNCc1cn(S(=O)(=O)c2cc(C)cc(C)c2)c2cc(Nc3ccc(C)cc3F)ccc12 [Example 239, 1-((3,5-dimethylphenyl)sulfonyl)-N-(2-fluoro-4-methylphenyl)-3-((methylamino)methyl)-1H-indol-6-amine hydrochloride] | 1.75 µM
CNCc1cn(S(=O)(=O)c2ccc(Cl)c(Cl)c2Cl)c2cc(Nc3ccc(C)cc3F)ccc12 [Example 240, N-(2-fluoro-4-methylphenyl)-3-((methylamino)methyl)-1-((2,3,4-trichlorophenyl)sulfonyl)-1H-indol-6-amine hydrochloride] | 1.67 µM
CNCc1cn(S(=O)(=O)c2cncc(Br)c2)c2cc(Nc3ccc(C)cc3F)ccc12 [Example 241, 1-((5-bromopyridin-3-yl)sulfonyl)-N-(2-fluoro-4-methylphenyl)-3-((methylamino)methyl)-1H-indol-6-amine hydrochloride] | 2.19 µM
CNCc1cn(S(=O)(=O)c2ccc(OC)nc2)c2cc(Nc3ccc(C)cc3F)ccc12 [Example 242, N-(2-fluoro-4-methylphenyl)-1-((6-methoxypyridin-3-yl)sulfonyl)-3-((methylamino)methyl)-1H-indol-6-amine hydrochloride] | 3.85 µM
CNCc1cn(S(=O)(=O)c2cccnc2)c2cc(-c3ccccc3)ccc12 [Example 243, N-methyl-1-(6-phenyl-1-(pyridin-3-ylsulfonyl)-1H-indol-3-yl)methanamine] | 7.14 µM
CNCc1cn(S(=O)(=O)c2cccnc2)c2cc(-c3cccc(Cl)c3)ccc12 [Example 244, 1-(6-(3-chlorophenyl)-1-(pyridin-3-ylsulfonyl)-1H-indol-3-yl)-N-methylmethanamine] | 2.44 µM
CNCc1cn(S(=O)(=O)c2cccnc2)c2cc(-c3cccc(NC(C)=O)c3)ccc12 [Example 245, N-(3-(3-((methylamino)methyl)-1-(pyridin-3-ylsulfonyl)-1H-indol-6-yl)phenyl)acetamide] | 12.9 µM
CNCc1cn(S(=O)(=O)c2cccnc2)c2cc(-c3ccc(N)cc3)ccc12 [Example 246, 4-(3-((methylamino)methyl)-1-(pyridin-3-ylsulfonyl)-1H-indol-6-yl)aniline] | 0.53 µM
CNCc1cn(S(=O)(=O)c2cccnc2)c2cc(-c3ccc(-c4ccccc4)cc3)ccc12 [Example 247, 1-(6-([1,1′-biphenyl]-4-yl)-1-(pyridin-3-ylsulfonyl)-1H-indol-3-yl)-N-methylmethanamine] | 4.15 µM
CNCc1cn(S(=O)(=O)c2cccnc2)c2cc(-c3ccc(OC)nc3)ccc12 [Example 248, 1-(6-(6-methoxypyridin-3-yl)-1-(pyridin-3-ylsulfonyl)-1H-indol-3-yl)-N-methylmethanamine] | 20 µM
CNCc1cn(S(=O)(=O)c2cccnc2)c2cc(-c3cnn(C)c3)ccc12 [Example 249, N-methyl-1-(6-(1-methyl-1H-pyrazol-4-yl)-1-(pyridin-3-ylsulfonyl)-1H-indol-3-yl)methanamine] | 50 µM
CNCc1cn(S(=O)(=O)c2cccnc2)c2cc(-c3ccnn3C)ccc12 [Example 250, N-methyl-1-(6-(1-methyl-1H-pyrazol-5-yl)-1-(pyridin-3-ylsulfonyl)-1H-indol-3-yl)methanamine] | 40 µM
CNCc1cn(S(=O)(=O)c2cccnc2)c2cc(-c3ccc(OC)cc3)ccc12 [Example 251, 1-(6-(4-methoxyphenyl)-1-(pyridin-3-ylsulfonyl)-1H-indol-3-yl)-N-methylmethanamine hydrochloride] | 2.6 µM
CNCc1cn(S(=O)(=O)c2cccnc2)c2cc(-c3ccc(C)cc3F)ccc12 [Example 252, 1-(6-(2-fluoro-4-methylphenyl)-1-(pyridin-3-ylsulfonyl)-1H-indol-3-yl)-N-methylmethanamine hydrochloride] | 1 µM
CNCc1cn(S(=O)(=O)c2cccnc2)c2cc(-c3ccc(C)cc3Cl)ccc12 [Example 253, 1-(6-(2-chloro-4-methylphenyl)-1-(pyridin-3-ylsulfonyl)-1H-indol-3-yl)-N-methylmethanamine hydrochloride] | 0.49 µM
CNCc1cn(S(=O)(=O)c2cccnc2)c2cc(-c3cccnc3C(F)(F)F)ccc12 [Example 254, N-methyl-1-(1-(pyridin-3-ylsulfonyl)-6-(2-(trifluoromethyl)pyridin-3-yl)-1H-indol-3-yl)methanamine hydrochloride] | 9.15 µM
CNCc1cn(S(=O)(=O)c2cccnc2)c2cc(-c3ccc(F)nc3)ccc12 [Example 255, 1-(6-(6-fluoropyridin-3-yl)-1-(pyridin-3-ylsulfonyl)-1H-indol-3-yl)-N-methylmethanamine hydrochloride] | 11.7 µM
CNCc1cn(S(=O)(=O)c2cccnc2)c2cc(-c3ccnc(F)c3)ccc12 [Example 256, 1-(6-(2-fluoropyridin-4-yl)-1-(pyridin-3-ylsulfonyl)-1H-indol-3-yl)-N-methylmethanamine hydrochloride] | 20 µM
CNCc1cn(S(=O)(=O)c2cccnc2)c2cc(-c3cnc(F)c(C)c3)ccc12 [Example 257, 1-(6-(6-fluoro-5-methylpyridin-3-yl)-1-(pyridin-3-ylsulfonyl)-1H-indol-3-yl)-N-methylmethanamine hydrochloride] | 14.2 µM
CNCc1cn(S(=O)(=O)c2cccnc2)c2cc(-c3cncnc3)ccc12 [Example 258, N-methyl-1-(1-(pyridin-3-ylsulfonyll)-6-(pyrimidin-5-yl)-1H-indol-3-yl)methanamine hydrochloride] | 20 µM
CNCc1cn(S(=O)(=O)c2cccnc2)c2cc(-c3cnc(OC)nc3)ccc12 [Example 259, 1-(6-(2-methoxypyrimidin-5-yl)-1-(pyridin-3-ylsulfonyl)-1H-indol-3-yl)-N-methylmethanamine hydrochloride] | 40 µM
